Measured values from US4539149A, “β-Lactam antibacterial agents” (Beecham Group p.l.c., priority 1981, dated 1985).
Values after ≈ are worked out from the molar mass of the structure shown. Structures can show the parent of a compound that is named as a salt.

Each molecule was assayed on P. mirabilis 889 (assay: MIC against P. mirabilis 889). Conditions: P. mirabilis 889.
Type: cell-based

MIC against P. mirabilis 889 [µg/mL] | SMILES
125 | CC(=O)OCC1=C(C(=O)O)N2C(=O)[C@@](NC=O)(NC(=O)C(NC(N)=O)c3cccs3)[C@H]2SC1 (single isomer, unassigned) [Example 52 (Isomer 1), 7β-[2-[(Aminocarbonyl)amino]-2-(thien-2-yl)acetamido]-7α-formamidocephalosporanic acid, sodium salt (Isomer 1)]
25 | CC(=O)OCC1=C(C(=O)O)N2C(=O)[C@@](NC=O)(NC(=O)C(NC(N)=O)c3cccs3)[C@H]2SC1 (single isomer, unassigned) [Example 52 (Isomer 2), 7β-[2-[(Aminocarbonyl)amino]-2-(thien-2-yl)acetamido]-7α-formamidocephalosporanic acid, sodium salt (Isomer 2)]

Same assay, conditions: Proteus mirabilis, 889

SMILES | MIC [µg/mL]
CNC(=O)C[C@@H](N)C(=O)N[C@@H](C(=O)N[C@]1(NC=O)C(=O)N2[C@@H](C(=O)O)C(C)(C)S[C@@H]21)c1ccc(O)cc1 [Example 50, 6β-[D-2-[D-2-amino-3-(N-methylcarbamoyl)propionamido]-2-(4-hydroxyphenyl)acetamido]-6α-formamidopenicillanic acid, sodium salt] | 1

Same assay, conditions: Proteus mirabilis, 889, P. mirabilis 889

SMILES | MIC [µg/mL]
Cn1nnnc1SCC1=C(C(=O)O)N2C(=O)[C@@](NC=O)(NC(=O)Cc3cccs3)[C@H]2SC1 [Example 53, 7α-Formamido-7β-[2-(thien-2-yl)acetamido]-3-[(1-methyl-1H-tetrazol-5-yl)thiomethyl]ceph-3-em-4-carboxylic acid, sodium salt] | 10
CC(=O)OCC1=C(C(=O)O)N2C(=O)[C@@](NC=O)(NC(=O)C(C(=O)O)c3ccsc3)[C@H]2SC1 (stereo partly drawn) [Example 43, 7β-[2-Carboxy-2-(thien-3-yl)acetamido]-7α-formamido cephalosporanic acid, disodium salt] | 100
CCN1CCN(C(=O)N[C@@H](C(=O)N[C@]2(NC=O)C(=O)N3C(C(=O)O)=C(COC(C)=O)CS[C@@H]32)c2ccc(O)cc2)C(=O)C1=O [Example 39, 7β-[D-2-[(4-Ethyl-2,3-dioxopiperazin-1-yl)carbonylamino]-2-(4-hydroxyphenyl)acetamido]-7α-formamidocephalosporanic acid, sodium salt] | 0.2
CC(=O)OCC1=C(C(=O)O)N2C(=O)[C@@](NC=O)(NC(=O)CSCC#N)[C@H]2SC1 [Example 51, 7β-[2-(Cyanomethylthio)acetamido]-7α-formamidocephalosporanic acid, sodium salt] | 25
CC(=O)OCC1=C(C(=O)O)N2C(=O)[C@@](NC=O)(NC(=O)Cc3csc(N)n3)[C@H]2SC1 [Example 46, 7β-[2-(2-Aminothiazol-4-yl)acetamido]-7α-formamidocephalosporanic acid, trifluoroacetic acid salt] | 100
CCN1CCN(C(=O)N[C@@H](C(=O)N[C@]2(NC=O)C(=O)N3C(C(=O)O)=C(COC(C)=O)CS[C@@H]32)c2ccccc2)C(=O)C1=O [Example 36, 7β-[D-2-[(4-Ethyl-2,3-dioxopiperazin-1-yl)carbonylamino]-2-phenylacetamido]-7α-Formamidocephalosporanic acid, sodium salt] | 0.2
CC1(C)S[C@H]2N(C(=O)[C@@]2(NC=O)NC(=O)[C@H](N)c2ccc(O)cc2)[C@H]1C(=O)O [Example 9, 6α-Formamido-6β-[D-2-amino-2-(4-hydroxyphenyl)acetamido]penicillanic acid] | 50 (≈ 122 µM)
Cc1ccc2c(O)c(C(=O)N[C@@H](C(=O)N[C@]3(NC=O)C(=O)N4[C@@H](C(=O)O)C(C)(C)S[C@@H]43)c3ccc(O)cc3)cnc2n1 [Example 49, 6α-Formamido-6β-[D-2-[(4-hydroxy-7-methyl-1,8-naphthyridin-3-yl)carbonylamino]-2-(4-hydroxyphenyl)acetamido]penicillanic acid, sodium salt] | 5
CCN1CCN(C(=O)N[C@H](C(=O)N[C@]2(NC=O)C(=O)N3C(C(=O)O)=C(COC(C)=O)CS[C@@H]32)c2cccs2)C(=O)C1=O [Example 45, 7β-[L-2-[(4-Ethyl-2,3-dioxopiperazin-1-yl)carbonylamino]-2-(thien-2-yl)acetamido]-7α-formamidocephalosporanic acid, sodium salt] | 0.25
CCN1CCN(C(=O)N[C@H](C(=O)N[C@]2(NC=O)C(=O)N3[C@@H](C(=O)O)C(C)(C)S[C@@H]32)c2ccc(O)c(O)c2)C(=O)C1=O [Example 58, 6β-[L-2-[(4-ethyl-2,3-dioxopiperazin-1-yl)carbonyllamino]-2-(3,4-dihydroxyphenyl)acetamido]-6α-formamidopenicillanic acid, sodium salt] | 100

Second part, the molecule after the results:

MIC [µg/mL] | SMILES
125 | CCN1CCN(C(=O)N[C@H](C(=O)N[C@]2(NC=O)C(=O)N3[C@@H](C(=O)O)C(C)(C)S[C@@H]32)c2ccc(O)cc2)C(=O)C1=O [Example 6, 6α-Formamido-6β-[L-2-[(4-ethyl-2,3-dioxopiperazin-1-yl)carbonylamino]-2-(4-hydroxyphenyl)acetamido]penicillanic acid, sodium salt]
0.1 | CCN1CCN(C(=O)N[C@@H](C(=O)N[C@]2(NC=O)C(=O)N3[C@@H](C(=O)O)C(C)(C)S[C@@H]32)c2cccs2)C(=O)C1=O [Example 26, 6β-[D-2-(4-Ethyl-2,3-dioxopiperazin-1-yl)carbonylamino]-2-(thien-2-yl)acetamido]-6α-formamidopenicillanic acid, sodium salt]
0.5 | CC1(C)S[C@H]2N(C(=O)[C@@]2(NC=O)NC(=O)[C@H](NC(=O)N2CCN(S(C)(=O)=O)C2=O)c2ccccc2)[C@H]1C(=O)O [Example 12, 6α-Formamido-6β-[D-2-(3-methylsulphonyl-2-oxoimidazolidin-1-ylcarbonylamino)-2-penylacetamido]penicillanic acid, sodium salt]
10 | CCOC(=O)c1[nH]cnc1C(=O)N[C@@H](C(=O)N[C@]1(NC=O)C(=O)N2[C@@H](C(=O)O)C(C)(C)S[C@@H]21)c1ccc(O)cc1 [Example 25, 6β-[D-2-[(5-Ethoxycarbonylimadazol-4-yl)carbonylamino]-2-(4-hydroxyphenyl)acetamido]-6α-formamidopenicillanic acid, sodium salt]
5 | CC1(C)S[C@H]2N(C(=O)[C@@]2(NC=O)NC(=O)[C@H](NC(=O)Nc2cnc(Nc3ccccc3)nc2O)c2ccccc2)[C@H]1C(=O)O [Example 7, 6α-Formamido-6β-[D-2-(2-phenylamino-4-hydroxypyrimidin-5-ylureido)-2-phenylacetamido]penicillanic acid, di-sodium salt]
50 | CC1(C)S[C@H]2N(C(=O)[C@@]2(NC=O)NC(=O)[C@H](NC(=O)c2cnc(NCc3ccccc3)nc2O)c2ccccc2)[C@H]1C(=O)O [Example 15, 6α-Formamido-6β-[D-2-(2-benzylamino-4-hydroxypyrimidin-5-ylcarboxamido)-2-phenylacetamido]penicillanic acid, disodium salt]
0.2 | CCN1CCN(C(=O)N[C@@H](C(=O)N[C@]2(NC=O)C(=O)N3[C@@H](C(=O)O)C(C)(C)S[C@@H]32)c2ccccc2)C(=O)C1=O [Example 4, 6α-Formamido-6β-[D-2-[(4-ethyl-2,3-dioxopiperazin-1-yl)carbonylamino]-2-phenylacetamido]penicillanic acid, sodium salt]
30 | CC(=O)OCC1=C(C(=O)O)N2C(=O)[C@@](NC=O)(NC(=O)/C(=N\OC(C)(C)C(=O)O)c3csc(N)n3)[C@H]2SC1 [Example 67, 7β-[(Z)-2-(2-Aminothiazol-4-yl)-2-(1-carboxy-1-methylethoxyimino)acetamido]-7α-formamidocephalosporanic acid disodium salt]
> 100 | CC1(C)S[C@H]2N(C(=O)[C@@]2(NC=O)NC(=O)COc2ccccc2)[C@H]1C(=O)O [Example 1, 6α-Formamido-6β-phenoxyacetamido penicillanic acid sodium salt]
25 (≈ 63.7 µM) | CC1(C)S[C@H]2N(C(=O)[C@@]2(NC=O)NC(=O)[C@H](N)c2ccccc2)[C@H]1C(=O)O [Example 8, 6α-Formamido-6β-(D-2-amino-2-phenylacetamido)penicillanic acid]
> 100 | CC1(C)S[C@H]2N(C(=O)[C@@]2(NC=O)NC(=O)[C@H](NC(=O)c2cnc3ncnn3c2O)c2ccccc2)[C@H]1C(=O)O [Example 14, 6α-Formamido-6β-[D-2-(7-hydroxy-1,2,4-triazolo[2,3-a]pyrimidin-6-ylcarboxamido)-2-phenylacetamido]penicillanic acid, disodium salt]
0.5 | CC1(C)S[C@H]2N(C(=O)[C@@]2(NC=O)NC(=O)[C@H](NC(=O)N2CCNC2=O)c2ccc(O)cc2)[C@H]1C(=O)O [Example 16, 6α-Formamido-6β-[D-2-(2-oxoimidazolidin-1-ylcarbonylamino)-2-(4-hydroxyphenyl)acetamido]penicillanic acid, sodium salt]
100 | CCN1CCN(C(=O)N[C@@H](C(=O)N[C@]2(NC=O)C(=O)N3[C@@H](C(=O)O)C(C)(C)S[C@@H]32)[C@H](C)OCc2ccccc2)C(=O)C1=O [Example 30, 6β-[(2R,3S)-3-Benzyloxy-2-[(4-ethyl-2,3-dioxopiperazin-1-yl)carbonylamino]butyramido]-6α-formamidopenicillanic acid, sodium salt]
5 | CC1(C)S[C@H]2N(C(=O)[C@@]2(NC=O)NC(=O)[C@H](NC(=O)Nc2cnc(Nc3ccccc3)nc2O)c2ccc(O)cc2)[C@H]1C(=O)O [Example 32, 6α-Formamido-6β-[D-2-(4-hydroxyphenyl)-2-[3-[4-hydroxy-2-(phenylamino)pyrimidin-5-yl]ureido]acetamido]penicillanic acid, sodium salt]
